Experimental data taken from patent publication US20170252350A1, “SMALL MOLECULE IRE1-ALPHA INHIBITORS” (Cornell University, priority 2016, published 2017).
Several values for one entry are separate records, joined by “and”; a condition that tells them apart may be missing. Identical values can stand only once.

Key:
[1] = molecular target: T1, IRE1α (Homo sapiens, UniProt O75460); test: In vitro FRET assay of IRE1α endoribonuclease activity (XBP1 RNA hairpin probe); assay type: biochemical; conditions: SignalChem IRE1α protein 2 nM, fluorescence read over 30 minutes
T1 construct: purchased SignalChem
T1 sequence (O75460 19-977): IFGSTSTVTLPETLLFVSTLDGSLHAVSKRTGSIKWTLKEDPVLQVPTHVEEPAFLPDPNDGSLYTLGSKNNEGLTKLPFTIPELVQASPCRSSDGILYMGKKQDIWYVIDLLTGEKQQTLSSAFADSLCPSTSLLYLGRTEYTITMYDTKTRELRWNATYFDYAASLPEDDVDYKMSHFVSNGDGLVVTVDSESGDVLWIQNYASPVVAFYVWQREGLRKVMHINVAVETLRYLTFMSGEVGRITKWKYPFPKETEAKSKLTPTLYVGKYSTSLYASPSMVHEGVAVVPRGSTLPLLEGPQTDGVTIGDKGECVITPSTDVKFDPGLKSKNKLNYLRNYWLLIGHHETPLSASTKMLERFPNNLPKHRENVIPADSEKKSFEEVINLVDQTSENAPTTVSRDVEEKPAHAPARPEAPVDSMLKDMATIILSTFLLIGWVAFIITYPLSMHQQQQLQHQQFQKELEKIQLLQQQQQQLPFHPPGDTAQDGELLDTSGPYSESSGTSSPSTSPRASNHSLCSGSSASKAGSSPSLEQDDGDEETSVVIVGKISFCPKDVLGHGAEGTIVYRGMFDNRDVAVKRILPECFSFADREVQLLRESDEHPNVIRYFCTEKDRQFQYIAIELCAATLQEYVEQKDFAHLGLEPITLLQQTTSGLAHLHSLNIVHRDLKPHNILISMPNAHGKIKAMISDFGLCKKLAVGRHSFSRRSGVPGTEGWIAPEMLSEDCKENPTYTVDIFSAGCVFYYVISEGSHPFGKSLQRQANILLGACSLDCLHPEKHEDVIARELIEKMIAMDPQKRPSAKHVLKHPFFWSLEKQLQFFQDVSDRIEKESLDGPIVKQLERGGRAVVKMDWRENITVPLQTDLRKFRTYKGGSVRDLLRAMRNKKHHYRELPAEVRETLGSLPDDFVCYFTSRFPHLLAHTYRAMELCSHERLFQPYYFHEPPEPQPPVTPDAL
Description: To evaluate potential small molecule IRE1 inhibitors, a Förster resonance energy transfer (FRET)-based small molecule IRE1 screening system was used. In brief, a small XBP1-mimetic RNA hairpin containing sequence features required for IRE1α-mediated splicing has been synthesized with the fluorophore 6FAM attached to the 5′ end and the quenching dye Black Hole Quencher 1 (BHQ1) attached to the 3′ end. When the hairpin is intact, 6FAM fluorescence is completely absorbed by BHQ1; however, IRE1α-mediated cleavage of the RNA hairpin leads to an increase in the fluorescence signal. The inventors also incorporated a point mutant version of this same RNA hairpin that is resistant to IRE1α-mediated cleavage to control for non-specific RNAse contamination (FIG. 2).
To perform the in vitro FRET assay, 1× complete assay buffer (CAB; […], 50 mM sodium citrate pH 7.15, 1 mM magnesium acetate, 0.02% tween 20) was used to dilute SignalChem IRE1α protein to a final concentration of 2 nM. Selected compounds were serially diluted with DMSO in a non-binding black 384-well plate for a total of 15 μl in each well. 2 μl of the serially diluted compound or DMSO control were then added to new wells containing 98 μl of 1×CAB, for a total volume of 100 μl, 10 μl of which were then transferred to wells of a new plate. 5 μof the diluted IRE1α was then added to each well. 5 μl of a […] XBP1 RNA probe was then added to each well. Fluorescence was then read over 30 minutes in kinetic mode (485/515 nm).
Two RNA probes were used, XBP1 wildtype (CAUGUCCGCAGCACAUG; SEQ ID NO: 1) which is able to be spliced by active IRE1α or XBP1 mutant (CAUGUCCCCAGCACAUG; SEQ ID NO: 2) which is unable to be spliced. Each probe contained a 5′ 6-FAM modification and a 3′ IOWA Black FQ modification, […]

[2] = system: myeloid dendritic cells; test: Lipid accumulation (BODIPY 493/503) in myeloid dendritic cells exposed to ovarian cancer ascites supernatants; assay type: cell-based, mouse
Description: FIG. 1D is flow cytometry analysis of lipid accumulation in mouse bone marrow-derived dendritic cells exposed to the indicated treatments, measured by BODIPY 493/503 staining intensity. Both raw data and quantified geometric mean fluorescence intensity (MFI) are shown.

Row | Molecule | EC50 [1] | intracellular lipid accumulation [2]
1 | CN1CCN(Cc2ccc(NC(=O)Nc3cc(C#Cc4cccnc4)n(C)n3)cc2C(F)(F)F)CC1 [Compound A1] | ≤ 5 µM | 
2 | CN1CCN(Cc2ccc(NC(=O)Nc3cc(C#Cc4cnc5cccnn45)n(C)n3)cc2C(F)(F)F)CC1 [Compound A3] | ≤ 5 µM | 
3 | CN1CCN(Cc2ccc(NC(=O)Nc3cc(C#Cc4ccncc4)n(C)n3)cc2C(F)(F)F)CC1 [Compound A10] | ≤ 5 µM | 
4 | CN1CCN(Cc2ccc(NC(=O)Nc3cc(C#Cc4cc(N)[nH]n4)n(C)n3)cc2C(F)(F)F)CC1 [Compound A11] | ≤ 5 µM | 
5 | CN1CCN(Cc2ccc(NC(=O)Nc3cc(C#Cc4cn[nH]c4)n(C)n3)cc2C(F)(F)F)CC1 [Compound A12] | ≤ 5 µM | 
6 | CN1CCN(Cc2ccc(NC(=O)Nc3cc(C#Cc4cncn4C)n(C)n3)cc2C(F)(F)F)CC1 [Compound A13] | ≤ 5 µM | 
7 | CN1CCN(Cc2ccc(NC(=O)Nc3cc(C#Cc4n[nH]c5cccnc45)n(C)n3)cc2C(F)(F)F)CC1 [Compound A14] | ≤ 5 µM | 
8 | CN1CCN(Cc2ccc(NC(=O)Nc3cc(C#Cc4cnccn4)n(C)n3)cc2C(F)(F)F)CC1 [Compound A19] | ≤ 5 µM | 
9 | Cn1nc(NC(=O)Nc2cccc(C(F)(F)F)c2)cc1C#Cc1ccc(N)nc1 [Compound A20] | ≤ 5 µM | 
10 | Cn1nc(NC(=O)Nc2ccc(CN3CCN(CCO)CC3)c(C(F)(F)F)c2)cc1C#Cc1ccc(N)nc1 [Compound A22] | ≤ 5 µM | 
11 | vitamin E |  | suppressed

Now from value to molecule, other results behind:

Row | EC50 [1] | Molecule | intracellular lipid accumulation [2]
12 | ≤ 5 µM | CN1CCN(Cc2ccc(NC(=O)Nc3cc(C#Cc4ccc(N)nc4)n(C)n3)cc2C(F)(F)F)CC1 [Compound A2] | 
13 | ≤ 5 µM | CN1CCN(Cc2ccc(NC(=O)Nc3cc(C#Cc4cnc5ccccn45)n(C)n3)cc2C(F)(F)F)CC1 [Compound A4] | 
14 | ≤ 5 µM | CN1CCN(Cc2ccc(NC(=O)Nc3cc(C#Cc4cnc5cnccn45)n(C)n3)cc2C(F)(F)F)CC1 [Compound A5] | 
15 | ≤ 5 µM | CN1CCN(Cc2ccc(NC(=O)Nc3cc(C#Cc4cncc5nccn45)n(C)n3)cc2C(F)(F)F)CC1 [Compound A6] | 
16 | 5 to 50 µM | CN1CCN(Cc2ccc(NC(=O)Nc3cc(C#Cc4ccnc(N)c4)n(C)n3)cc2C(F)(F)F)CC1 [Compound A7] | 
17 | ≤ 5 µM and 5 to 50 µM | COc1cc(C#Cc2cc(NC(=O)Nc3ccc(CN4CCN(C)CC4)c(C(F)(F)F)c3)nn2C)ccn1 [Compound A8] | 
18 | ≤ 5 µM | CN1CCN(Cc2ccc(NC(=O)Nc3cc(C#Cc4cnc(N)cn4)n(C)n3)cc2C(F)(F)F)CC1 [Compound A9] | 
19 | 5 to 50 µM | CN1CCN(Cc2ccc(NC(=O)Nc3cc(C#Cc4cc[nH]c(=O)c4)n(C)n3)cc2C(F)(F)F)CC1 [Compound A15] | 
20 | ≤ 5 µM | CN1CCN(Cc2ccc(NC(=O)Nc3cc(C#Cc4ccccn4)n(C)n3)cc2C(F)(F)F)CC1 [Compound A16] | 
21 | ≤ 5 µM | CN1CCN(Cc2ccc(NC(=O)Nc3cc(C#Cc4ccc(C#N)nc4)n(C)n3)cc2C(F)(F)F)CC1 [Compound A17] | 
22 | 50 to 100 µM | CN1CCN(Cc2ccc(NC(=O)Nc3cc(C#Cc4ccc(N)cc4)n(C)n3)cc2C(F)(F)F)CC1 [Compound A18] | 
23 | ≤ 5 µM | CN1CCN(Cc2ccc(NC(=O)Nc3cc(C#Cc4cncc(N)c4)n(C)n3)cc2C(F)(F)F)CC1 [Compound A21] | 
24 | ≤ 5 µM | CN1CCN(Cc2ccc(NC(=O)Nc3nnc(C#Cc4ccc(N)nc4)s3)cc2C(F)(F)F)CC1 [Compound A23] | 
25 | 5 to 50 µM | Cn1nc(NC(=O)Nc2ccc(CN3CCCCC3)c(C(F)(F)F)c2)cc1C#Cc1ccc(N)nc1 [Compound A24] | 
26 | 5 to 50 µM | Cn1nc(NC(=O)Nc2ccc(CN3CCOCC3)c(C(F)(F)F)c2)cc1C#Cc1ccc(N)nc1 [Compound A25] | 
